Target: T1, Tissue alpha-L-fucosidase (Bos taurus) (UniProt Q2KIM0)
T1 sequence (whole entry): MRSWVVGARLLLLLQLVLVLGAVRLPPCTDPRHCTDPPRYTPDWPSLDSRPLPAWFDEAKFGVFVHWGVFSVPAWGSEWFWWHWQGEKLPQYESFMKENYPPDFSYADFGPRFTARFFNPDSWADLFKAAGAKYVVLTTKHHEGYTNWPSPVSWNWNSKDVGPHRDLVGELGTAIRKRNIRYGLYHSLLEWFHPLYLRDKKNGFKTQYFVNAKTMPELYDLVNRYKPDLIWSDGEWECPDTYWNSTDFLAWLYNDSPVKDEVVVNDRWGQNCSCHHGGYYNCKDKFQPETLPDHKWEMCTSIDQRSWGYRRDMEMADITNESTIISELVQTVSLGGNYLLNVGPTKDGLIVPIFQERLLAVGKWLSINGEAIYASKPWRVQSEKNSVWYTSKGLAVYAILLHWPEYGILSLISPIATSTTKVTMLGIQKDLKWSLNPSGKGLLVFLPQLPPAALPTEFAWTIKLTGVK
Assay: Inhibition of bovine kidney alpha-fucosidase at 1 mM using […] as substrate incubated for 10 mins by spectrophotometric method

inhibition [%]	Compound
< 50	Cc1cc2c(c(=O)[nH]1)C(=O)O/C2=C\c1ccc(CO)n1-c1ccccc1C
< 50	C#CCn1c(/C=C2\OC(=O)c3c2cc(C)[nH]c3=O)ccc1CO
< 50	C=CCn1c(/C=C2\OC(=O)c3c2cc(C)[nH]c3=O)ccc1CO
< 50	Cc1cc2c(c(=O)[nH]1)C(=O)O/C2=C\c1ccc(CO)n1-c1ccc(F)cc1
< 50	Cc1cc2c(c(=O)[nH]1)C(=O)O/C2=C\c1ccc(CO)n1CCc1ccccc1
< 50	Cc1cc2c(c(=O)[nH]1)C(=O)O/C2=C\c1ccc(CO)n1-c1ccc(Cl)cc1

The remaining lines, values behind:

Compound	inhibition [%]
CC(C)=CCc1cc(C(=O)/C=C/c2ccc(O)c(O)c2)c(O)cc1O [BROUSSOCHALCONE A]	< 50
Oc1cc(O)cc(/C=C/c2cc(O)c(O)c(O)c2)c1	< 50
O=c1c2cc(O)c(O)cc2oc2cc(O)cc(O)c12	< 50
O=C(N/N=C/c1ccc(Cl)cc1)c1ccc(-c2nc3ccccc3s2)cc1	< 50
C=CC(C)(C)c1c(O)cc2oc3c(CC=C(C)C)c(O)c(O)cc3c(=O)c2c1O [CUDRAXANTHONE L]	< 50
C=CC(C)(C)c1c2c(c(O)c3c(=O)c4ccc(O)c(O)c4oc13)C=CC(C)(C)O2 [MACLURAXANTHONE]	< 50

Target: not listed separately
Assay: Inhibition of Saccharomyces cerevisiae alpha-glucosidase using PNPG as substrate incubated for 10 mins by spectrophotometric method

IC50 [µM]	Compound
4.4	Cc1cc2c(c(=O)[nH]1)C(=O)O/C2=C\c1ccc(CO)n1CCc1c[nH]c2ccccc12
15	O=C1Nc2cc(Cl)ccc2/C1=C/c1ccccc1[N+](=O)[O-]
20.7	Cc1cc2c(c(=O)[nH]1)C(=O)O/C2=C\c1ccc(CO)n1-c1ccc(F)cc1
27.4	Cc1cc2c(c(=O)[nH]1)C(=O)O/C2=C\c1ccc(CO)n1-c1ccccc1
21.9	Cc1cc2c(c(=O)[nH]1)C(=O)O/C2=C\c1ccc(CO)n1-c1ccc(Cl)cc1
33.3	Cc1cc2c(c(=O)[nH]1)C(=O)O/C2=C\c1ccc(CO)n1-c1ccc(O)cc1
20.8	Cc1cc2c(c(=O)[nH]1)C(=O)O/C2=C\c1ccc(CO)n1Cc1ccccc1

More lines, now with the values behind:

Compound	IC50 [µM]
CC(C)c1ccc(/C=C2\C(=O)Nc3cc(Cl)ccc32)cc1	15
CC(C)=CCc1cc(C(=O)/C=C/c2ccc(O)c(O)c2)c(O)cc1O [BROUSSOCHALCONE A]	101
Oc1cc(O)cc(/C=C/c2cc(O)c(O)c(O)c2)c1	31.1
O=c1c2cc(O)c(O)cc2oc2cc(O)cc(O)c12	62.3
Cc1ccc(S(=O)(=O)Nc2ccc(C(=O)/C=C/c3ccc(O)c(O)c3)cc2)cc1	82.7
O=C(N/N=C/c1ccc(Cl)cc1)c1ccc(-c2nc3ccccc3s2)cc1	20.5
O=C1Nc2cc(Cl)ccc2/C1=C/c1ccc(O)c(O)c1	15
OCc1ccc2n1C[C@@H](c1ccc(O)cc1)OC2	5.01
CC(C)=CCc1cc(-c2oc3cc(O)c(CC=C(C)C)c(O)c3c(=O)c2O)cc(O)c1O [BROUSSONOL E]	85.9
C=CC(C)(C)c1c(O)cc2oc3c(CC=C(C)C)c(O)c(O)cc3c(=O)c2c1O [CUDRAXANTHONE L]	62.3
C=CC(C)(C)c1c2c(c(O)c3c(=O)c4ccc(O)c(O)c4oc13)C=CC(C)(C)O2 [MACLURAXANTHONE]	62.3
Cc1ccc(S(=O)(=O)Nc2cccc(C(=O)/C=C/c3ccc(O)c(O)c3)c2)cc1	82.7
Cc1ccc(S(=O)(=O)Nc2ccc(C(=O)/C=C/c3ccc(O)cc3)cc2)cc1	82.7
Cc1ccc(S(=O)(=O)Nc2cccc(C(=O)/C=C/c3ccc(O)cc3)c2)cc1	82.7

Target: T2, Alpha-mannosidase (Canavalia ensiformis, UniProt C0HJB3)
T2 sequence (C0HJB3 whole entry): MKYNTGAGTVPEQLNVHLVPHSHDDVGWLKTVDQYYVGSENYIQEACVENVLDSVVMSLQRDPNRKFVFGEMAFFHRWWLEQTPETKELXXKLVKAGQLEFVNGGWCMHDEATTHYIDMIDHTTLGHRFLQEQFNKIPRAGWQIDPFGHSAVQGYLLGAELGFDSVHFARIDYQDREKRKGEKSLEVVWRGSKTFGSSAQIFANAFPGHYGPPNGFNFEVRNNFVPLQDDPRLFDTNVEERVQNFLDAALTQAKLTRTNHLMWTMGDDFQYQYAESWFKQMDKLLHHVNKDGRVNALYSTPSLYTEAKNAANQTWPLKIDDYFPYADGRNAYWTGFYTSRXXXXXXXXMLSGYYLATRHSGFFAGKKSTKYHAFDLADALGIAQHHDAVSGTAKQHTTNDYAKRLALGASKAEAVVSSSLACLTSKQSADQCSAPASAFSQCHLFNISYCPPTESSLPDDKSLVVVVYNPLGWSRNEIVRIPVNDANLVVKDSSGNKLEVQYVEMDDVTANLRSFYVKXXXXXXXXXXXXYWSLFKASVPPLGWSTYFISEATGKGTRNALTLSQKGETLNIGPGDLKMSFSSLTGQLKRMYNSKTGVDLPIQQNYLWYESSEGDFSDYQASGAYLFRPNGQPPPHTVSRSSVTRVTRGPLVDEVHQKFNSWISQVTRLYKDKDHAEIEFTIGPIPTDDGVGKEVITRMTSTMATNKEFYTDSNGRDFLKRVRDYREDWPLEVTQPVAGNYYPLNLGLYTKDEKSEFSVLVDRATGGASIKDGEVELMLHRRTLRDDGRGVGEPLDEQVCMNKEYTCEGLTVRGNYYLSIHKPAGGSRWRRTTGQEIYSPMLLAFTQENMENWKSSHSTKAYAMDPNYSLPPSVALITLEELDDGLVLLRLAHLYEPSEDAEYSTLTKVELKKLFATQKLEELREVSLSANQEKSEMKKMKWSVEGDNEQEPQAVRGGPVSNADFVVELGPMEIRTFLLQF
Assay: Inhibition of jack bean alpha-mannosidase using […] as substrate incubated for 10 mins by spectrophotometric method

IC50 [µM]	Compound
28	O=C1Nc2cc(Cl)ccc2/C1=C/c1ccccc1[N+](=O)[O-]
61.4	Cc1cc2c(c(=O)[nH]1)C(=O)O/C2=C\c1ccc(CO)n1-c1ccccc1
92.3	Cc1cc2c(c(=O)[nH]1)C(=O)O/C2=C\c1ccc(CO)n1Cc1ccccc1

Continued, molecule first:

Compound	IC50 [µM]
CC(C)c1ccc(/C=C2\C(=O)Nc3cc(Cl)ccc32)cc1	28
Cc1ccc(S(=O)(=O)Nc2ccc(C(=O)/C=C/c3ccc(O)c(O)c3)cc2)cc1	105
O=C(N/N=C/c1ccc(Cl)cc1)c1ccc(-c2nc3ccccc3s2)cc1	15
O=C1Nc2cc(Cl)ccc2/C1=C/c1ccc(O)c(O)c1	28
OCc1ccc2n1C[C@@H](c1ccc(O)cc1)OC2	14
Cc1ccc(S(=O)(=O)Nc2cccc(C(=O)/C=C/c3ccc(O)c(O)c3)c2)cc1	105
Cc1ccc(S(=O)(=O)Nc2ccc(C(=O)/C=C/c3ccc(O)cc3)cc2)cc1	105
Cc1ccc(S(=O)(=O)Nc2cccc(C(=O)/C=C/c3ccc(O)cc3)c2)cc1	105

Target: T3, Tissue alpha-L-fucosidase (Bos taurus, UniProt Q2KIM0)
T3 sequence (Q2KIM0 whole entry): T1 sequence (whole entry)
Assay: Inhibition of bovine kidney alpha-fucosidase using […] as substrate incubated for 10 mins by spectrophotometric method

IC50 [µM]	Compound
12.9	Cc1cc2c(c(=O)[nH]1)C(=O)O/C2=C\c1ccc(CO)n1CCc1c[nH]c2ccccc12
65	O=C1Nc2cc(Cl)ccc2/C1=C/c1ccccc1[N+](=O)[O-]
38.4	Cc1cc2c(c(=O)[nH]1)C(=O)O/C2=C\c1ccc(CO)n1-c1ccccc1
21.7	Cc1cc2c(c(=O)[nH]1)C(=O)O/C2=C\c1ccc(CO)n1-c1ccc(O)cc1
51.1	Cc1cc2c(c(=O)[nH]1)C(=O)O/C2=C\c1ccc(CO)n1Cc1ccccc1

More lines, now with the values behind:

Compound	IC50 [µM]
CC(C)c1ccc(/C=C2\C(=O)Nc3cc(Cl)ccc32)cc1	65
Cc1ccc(S(=O)(=O)Nc2ccc(C(=O)/C=C/c3ccc(O)c(O)c3)cc2)cc1	91
O=C1Nc2cc(Cl)ccc2/C1=C/c1ccc(O)c(O)c1	65
OCc1ccc2n1C[C@@H](c1ccc(O)cc1)OC2	21
CC(C)=CCc1cc(-c2oc3cc(O)c(CC=C(C)C)c(O)c3c(=O)c2O)cc(O)c1O [BROUSSONOL E]	89
Cc1ccc(S(=O)(=O)Nc2cccc(C(=O)/C=C/c3ccc(O)c(O)c3)c2)cc1	91
Cc1ccc(S(=O)(=O)Nc2ccc(C(=O)/C=C/c3ccc(O)cc3)cc2)cc1	91
Cc1ccc(S(=O)(=O)Nc2cccc(C(=O)/C=C/c3ccc(O)cc3)c2)cc1	91

Target: T4, Alpha-mannosidase (Canavalia ensiformis) (UniProt C0HJB3)
T4 sequence (whole entry): T2 sequence (C0HJB3 whole entry)
Assay: Inhibition of jack bean alpha-mannosidase at 1 mM using […] as substrate incubated for 10 mins by spectrophotometric method

inhibition [%]	Compound
< 50	Cc1cc2c(c(=O)[nH]1)C(=O)O/C2=C\c1ccc(CO)n1-c1ccccc1C
< 50	Cc1cc2c(c(=O)[nH]1)C(=O)O/C2=C\c1ccc(CO)n1CCc1c[nH]c2ccccc12
< 50	C#CCn1c(/C=C2\OC(=O)c3c2cc(C)[nH]c3=O)ccc1CO
< 50	C=CCn1c(/C=C2\OC(=O)c3c2cc(C)[nH]c3=O)ccc1CO
< 50	Cc1cc2c(c(=O)[nH]1)C(=O)O/C2=C\c1ccc(CO)n1-c1ccc(F)cc1
< 50	Cc1cc2c(c(=O)[nH]1)C(=O)O/C2=C\c1ccc(CO)n1CCc1ccccc1
< 50	Cc1cc2c(c(=O)[nH]1)C(=O)O/C2=C\c1ccc(CO)n1-c1ccc(Cl)cc1
< 50	Cc1cc2c(c(=O)[nH]1)C(=O)O/C2=C\c1ccc(CO)n1-c1ccc(O)cc1

More lines, now with the values behind:

Compound	inhibition [%]
CC(C)=CCc1cc(C(=O)/C=C/c2ccc(O)c(O)c2)c(O)cc1O [BROUSSOCHALCONE A]	< 50
Oc1cc(O)cc(/C=C/c2cc(O)c(O)c(O)c2)c1	< 50
O=c1c2cc(O)c(O)cc2oc2cc(O)cc(O)c12	< 50
CC(C)=CCc1cc(-c2oc3cc(O)c(CC=C(C)C)c(O)c3c(=O)c2O)cc(O)c1O [BROUSSONOL E]	< 50
C=CC(C)(C)c1c(O)cc2oc3c(CC=C(C)C)c(O)c(O)cc3c(=O)c2c1O [CUDRAXANTHONE L]	< 50
C=CC(C)(C)c1c2c(c(O)c3c(=O)c4ccc(O)c(O)c4oc13)C=CC(C)(C)O2 [MACLURAXANTHONE]	< 50

Tested on: Saccharomyces cerevisiae
Assay: Inhibition of Saccharomyces cerevisiae alpha-glucosidase at 1 mM using PNPG as substrate incubated for 10 mins by spectrophotometric method

inhibition [%]	Compound
< 50	Cc1cc2c(c(=O)[nH]1)C(=O)O/C2=C\c1ccc(CO)n1-c1ccccc1C
< 50	C#CCn1c(/C=C2\OC(=O)c3c2cc(C)[nH]c3=O)ccc1CO
< 50	C=CCn1c(/C=C2\OC(=O)c3c2cc(C)[nH]c3=O)ccc1CO
< 50	Cc1cc2c(c(=O)[nH]1)C(=O)O/C2=C\c1ccc(CO)n1CCc1ccccc1

Source: ChEMBL document CHEMBL4680156, “Discovery of novel pyrido-pyrrolidine hybrid compounds as alpha-glucosidase inhibitors and alternative agent for control of type 1 diabetes” (Eur J Med Chem, 2020)
